Test system: Thielavia sp. laccase
Experiment: Bleaching of solubilized indigo by laccase/mediator combinations, 96-well microtitre plate, absorbance at 600 nm
Assay type: biochemical
Method: An assay for the bleaching of the solubilized indigo substrate by laccase/mediator combinations was performed in a 96-well microtitre plate as follows
A saturated solution of indigo in N-methylpyrrolidone (NMP) was prepared by stirring indigo (30 mg) in NMP (10 ml) at room temperature for 5 hours. The NMP solution was diluted 10-fold into an aqueous buffer solution resulting in a blue solution. For example, dilution into 50 mM sodium acetate buffer at pH 5, or 50 mM sodium phosphate buffer at pH 7. Solutions were shaken well immediately before use.
The assay for the bleaching of the solubilized indigo substrate was performed in a 96-well microtitre plate whereby each well received the soluble indigo solution in 50 mM sodium acetate buffer at pH 5 (180 uL), laccase (10 ppm enzyme) and mediator solution (from a 20 mM stock solution in methanol). The total volume of each well was adjusted to 200 uL with deionzed water. A control containing laccase only was run in duplicate. The plate was sealed and incubated at 50° C. for 2 hours at 800 rpm on a heated agitator (Thermomixer, Eppendorf). Following this period, the plates were unsealed and a solution of ascorbic acid (20 uL of a 10% aqueous solution) added to each well in order to reduce the oxidized forms of the mediators. The extent of indigo bleaching was then assessed by determining the absorbance for each well at 600 nm using a microtitre plate reader. The lower the absorbance reading, the greater the extent of indigo bleaching.
Laccases derived from Myceliophtora (Denilite® II, Novozymes, Bagsvaerd, Denmark), Thielavia (Ecostone LCC10, AB enzymes, Darmstadt, Germany) and Cerrena sp. were assessed for their ability to bleach solubilized indigo in conjunction with low molecular weight mediators at two pH values.

## CCn1c(=NN=c2sc3cc(S(=O)(=O)O)ccc3n2CC)sc2cc(S(=O)(=O)O)ccc21 [ABTS]
Mediator concentration 50 uM
  effectiveness of mediator for indigo bleaching (in words): most effective mediator
Mediator concentration 500 uM
  effectiveness of mediator for indigo bleaching (in words): most effective mediator

## COc1cc(C(=O)O)cc(OC)c1O [Syringic acid, syringic acid]
Mediator concentration 50 uM
  effectiveness of mediator for indigo bleaching (in words): bleached soluble indigo no more effectively than the control condition

Source: patent publication US8772005B2, “Laccases, compositions and methods of use” (Danisco US Inc., priority 2006, dated 2014)
